Patent US20260356819A1, “OXOISOINDOLINYL-SUBSTITUTED […] DERIVATIVE AND USE THEREOF” (GLUETACS THERAPEUTICS (SHANGHAI) CO., LTD., priority 2023, published 2026)

Key:
Format in all cases: cell-based
Details in all cases: compounds at 50 nM and 500 nM
[1] = biological target: T1, IKZF2 (Homo sapiens, UniProt Q96SW2+Q9UKS7); experiment: Western blot degradation of IKZF2 in hPBMCs (24 h)
T1 construct: The supernatant was aspirated as the extracted total cell protein; endogenous in cells; host or cells: human peripheral blood mononuclear cells (hPBMCs)
T1 sequence (Q9UKS7 whole entry): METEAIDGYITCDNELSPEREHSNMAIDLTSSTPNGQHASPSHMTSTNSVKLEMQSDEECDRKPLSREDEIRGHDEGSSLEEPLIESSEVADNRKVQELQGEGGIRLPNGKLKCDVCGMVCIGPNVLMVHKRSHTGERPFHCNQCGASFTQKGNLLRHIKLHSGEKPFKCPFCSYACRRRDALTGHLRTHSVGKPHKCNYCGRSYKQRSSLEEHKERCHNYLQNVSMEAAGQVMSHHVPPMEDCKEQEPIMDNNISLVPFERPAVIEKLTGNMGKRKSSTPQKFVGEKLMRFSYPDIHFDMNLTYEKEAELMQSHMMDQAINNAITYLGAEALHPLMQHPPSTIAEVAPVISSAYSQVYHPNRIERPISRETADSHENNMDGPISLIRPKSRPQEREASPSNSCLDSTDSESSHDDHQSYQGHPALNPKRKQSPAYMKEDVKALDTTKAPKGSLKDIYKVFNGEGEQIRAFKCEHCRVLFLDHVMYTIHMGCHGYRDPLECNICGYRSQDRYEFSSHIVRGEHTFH
T1 sequence (Q96SW2 whole entry): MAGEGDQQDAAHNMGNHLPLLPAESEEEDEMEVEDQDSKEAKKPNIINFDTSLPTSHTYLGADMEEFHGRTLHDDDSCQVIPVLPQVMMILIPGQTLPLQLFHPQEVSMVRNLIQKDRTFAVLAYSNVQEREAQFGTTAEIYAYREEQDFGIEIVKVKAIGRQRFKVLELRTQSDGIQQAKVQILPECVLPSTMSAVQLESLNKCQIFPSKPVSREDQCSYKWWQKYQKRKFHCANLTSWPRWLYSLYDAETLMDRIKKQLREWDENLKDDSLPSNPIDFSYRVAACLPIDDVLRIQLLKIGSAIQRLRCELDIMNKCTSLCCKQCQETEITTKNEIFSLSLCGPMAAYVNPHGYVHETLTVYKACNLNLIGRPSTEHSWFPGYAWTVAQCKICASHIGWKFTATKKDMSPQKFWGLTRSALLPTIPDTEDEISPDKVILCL
T1 sequence (Q16531 whole entry partner): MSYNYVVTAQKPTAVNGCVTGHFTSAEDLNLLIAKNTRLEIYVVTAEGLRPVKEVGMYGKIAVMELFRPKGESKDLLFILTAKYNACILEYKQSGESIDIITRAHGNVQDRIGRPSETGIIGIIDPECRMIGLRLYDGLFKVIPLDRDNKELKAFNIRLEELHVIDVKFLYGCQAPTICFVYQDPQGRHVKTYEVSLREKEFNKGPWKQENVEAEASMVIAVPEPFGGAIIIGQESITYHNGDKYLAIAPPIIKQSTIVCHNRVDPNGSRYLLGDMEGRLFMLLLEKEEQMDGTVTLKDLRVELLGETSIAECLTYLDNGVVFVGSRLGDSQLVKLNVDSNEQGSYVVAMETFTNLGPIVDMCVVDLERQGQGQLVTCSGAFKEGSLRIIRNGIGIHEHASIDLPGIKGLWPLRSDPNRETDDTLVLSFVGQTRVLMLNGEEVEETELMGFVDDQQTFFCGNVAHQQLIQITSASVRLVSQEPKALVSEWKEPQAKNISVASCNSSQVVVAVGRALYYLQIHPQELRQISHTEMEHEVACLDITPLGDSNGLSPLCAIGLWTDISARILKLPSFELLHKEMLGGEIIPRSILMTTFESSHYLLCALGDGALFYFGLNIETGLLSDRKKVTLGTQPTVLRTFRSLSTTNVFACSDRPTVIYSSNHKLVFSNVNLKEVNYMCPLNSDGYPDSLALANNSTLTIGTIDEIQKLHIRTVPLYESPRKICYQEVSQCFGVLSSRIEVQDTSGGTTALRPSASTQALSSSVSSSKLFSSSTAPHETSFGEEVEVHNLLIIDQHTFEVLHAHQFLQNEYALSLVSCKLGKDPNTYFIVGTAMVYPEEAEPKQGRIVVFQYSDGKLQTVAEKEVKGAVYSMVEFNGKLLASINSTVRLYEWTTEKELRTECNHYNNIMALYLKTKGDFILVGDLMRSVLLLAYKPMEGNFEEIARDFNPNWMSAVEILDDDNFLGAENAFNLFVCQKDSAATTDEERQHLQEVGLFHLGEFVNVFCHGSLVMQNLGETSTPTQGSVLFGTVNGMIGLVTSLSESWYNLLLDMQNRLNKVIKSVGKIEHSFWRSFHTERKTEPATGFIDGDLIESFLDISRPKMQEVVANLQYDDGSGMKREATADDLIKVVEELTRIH
Procedure, shortened: (§1)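 Immunoblot densitometry quantifies target loss in hPBMCs after a 24 h compound exposure (50 nM, 500 nM). Percent remaining is normalised band intensity; DC50 is the concentration giving half the DMSO-control band grayscale.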

[2] = biological target: T2, IKZF3 (Homo sapiens, UniProt Q96SW2+Q9UKT9); experiment: Western blot degradation of IKZF3 in hPBMCs (24 h)
T2 construct: The supernatant was aspirated as the extracted total cell protein; endogenous in cells; host or cells: human peripheral blood mononuclear cells (hPBMCs)
T2 sequence (Q9UKT9 whole entry): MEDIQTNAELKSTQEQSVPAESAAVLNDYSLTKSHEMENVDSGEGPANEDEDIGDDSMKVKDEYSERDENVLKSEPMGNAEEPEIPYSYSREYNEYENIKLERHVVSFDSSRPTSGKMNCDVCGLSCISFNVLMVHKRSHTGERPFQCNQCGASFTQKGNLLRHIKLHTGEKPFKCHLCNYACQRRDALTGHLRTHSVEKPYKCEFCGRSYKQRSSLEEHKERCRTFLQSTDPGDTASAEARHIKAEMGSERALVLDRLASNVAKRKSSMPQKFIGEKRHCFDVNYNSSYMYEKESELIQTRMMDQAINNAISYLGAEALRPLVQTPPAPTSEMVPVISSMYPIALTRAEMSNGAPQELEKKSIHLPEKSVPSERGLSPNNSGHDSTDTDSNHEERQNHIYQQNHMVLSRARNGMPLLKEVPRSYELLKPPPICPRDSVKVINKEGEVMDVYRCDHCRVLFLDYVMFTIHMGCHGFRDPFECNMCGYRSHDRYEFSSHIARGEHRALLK
T2 sequence (Q96SW2 whole entry): as the sequence (Q96SW2 whole entry) above
T2 sequence (Q16531 whole entry partner): as the sequence (Q16531 whole entry partner) above
Procedure, shortened: as §1

[3] = biological target: T3, CK1α (Homo sapiens, UniProt P48729+Q96SW2); experiment: Western blot degradation of CK1α in hPBMCs (24 h)
T3 construct: The supernatant was aspirated as the extracted total cell protein; endogenous in cells; host or cells: human peripheral blood mononuclear cells (hPBMCs)
Procedure, shortened: as §1

[4] = biological target: T4, WEE1 (Homo sapiens, UniProt P30291+Q96SW2); experiment: Western blot degradation of WEE1 in hPBMCs (24 h)
T4 construct: The supernatant was aspirated as the extracted total cell protein; endogenous in cells; host or cells: human peripheral blood mononuclear cells (hPBMCs)
T4 sequence (P30291 whole entry): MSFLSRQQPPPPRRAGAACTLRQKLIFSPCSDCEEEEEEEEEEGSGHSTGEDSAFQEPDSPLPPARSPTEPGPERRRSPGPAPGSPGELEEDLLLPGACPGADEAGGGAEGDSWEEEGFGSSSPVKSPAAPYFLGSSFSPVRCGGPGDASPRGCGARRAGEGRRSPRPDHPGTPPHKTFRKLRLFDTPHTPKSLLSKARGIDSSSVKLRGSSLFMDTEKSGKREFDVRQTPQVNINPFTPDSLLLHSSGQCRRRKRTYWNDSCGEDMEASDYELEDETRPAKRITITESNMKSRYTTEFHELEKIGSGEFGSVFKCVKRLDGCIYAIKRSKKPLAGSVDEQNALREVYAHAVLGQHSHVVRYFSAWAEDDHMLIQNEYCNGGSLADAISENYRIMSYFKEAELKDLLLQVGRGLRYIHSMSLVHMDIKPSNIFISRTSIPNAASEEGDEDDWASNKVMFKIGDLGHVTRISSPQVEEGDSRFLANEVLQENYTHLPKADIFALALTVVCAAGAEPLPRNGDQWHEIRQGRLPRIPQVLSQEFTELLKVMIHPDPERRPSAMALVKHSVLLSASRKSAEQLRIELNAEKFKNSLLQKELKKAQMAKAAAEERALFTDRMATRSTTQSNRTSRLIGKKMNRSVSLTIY
T4 sequence (Q96SW2 whole entry): as the sequence (Q96SW2 whole entry) above
T4 sequence (Q16531 whole entry partner): as the sequence (Q16531 whole entry partner) above
Procedure, shortened: as §1

[5] = biological target: T5, GSPT1 (Homo sapiens, UniProt P15170+Q96SW2); experiment: Western blot degradation of GSPT1 in hPBMCs (24 h)
T5 construct: The supernatant was aspirated as the extracted total cell protein; endogenous in cells; host or cells: human peripheral blood mononuclear cells (hPBMCs)
T5 sequence (P15170 whole entry): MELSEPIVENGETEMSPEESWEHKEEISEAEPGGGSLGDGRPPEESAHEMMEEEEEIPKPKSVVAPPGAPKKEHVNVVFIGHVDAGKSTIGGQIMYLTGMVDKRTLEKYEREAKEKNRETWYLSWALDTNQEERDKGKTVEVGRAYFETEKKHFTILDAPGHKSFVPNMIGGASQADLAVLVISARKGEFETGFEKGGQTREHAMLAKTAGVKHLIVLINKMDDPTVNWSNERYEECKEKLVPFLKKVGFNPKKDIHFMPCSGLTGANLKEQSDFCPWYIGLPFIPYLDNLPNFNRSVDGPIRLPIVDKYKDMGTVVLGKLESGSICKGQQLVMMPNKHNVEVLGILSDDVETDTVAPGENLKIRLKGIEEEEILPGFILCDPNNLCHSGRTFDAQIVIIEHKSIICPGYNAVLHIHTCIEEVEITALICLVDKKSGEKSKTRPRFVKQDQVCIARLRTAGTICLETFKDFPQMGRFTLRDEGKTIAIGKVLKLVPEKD
T5 sequence (Q96SW2 whole entry): as the sequence (Q96SW2 whole entry) above
T5 sequence (Q16531 whole entry partner): as the sequence (Q16531 whole entry partner) above
Procedure, shortened: as §1

[6] = biological target: T6, IKZF1 (Homo sapiens, UniProt Q13422+Q96SW2); experiment: Western blot degradation of IKZF1 in hPBMCs (24 h)
T6 construct: The supernatant was aspirated as the extracted total cell protein; endogenous in cells; host or cells: human peripheral blood mononuclear cells (hPBMCs)
T6 sequence (Q13422 whole entry): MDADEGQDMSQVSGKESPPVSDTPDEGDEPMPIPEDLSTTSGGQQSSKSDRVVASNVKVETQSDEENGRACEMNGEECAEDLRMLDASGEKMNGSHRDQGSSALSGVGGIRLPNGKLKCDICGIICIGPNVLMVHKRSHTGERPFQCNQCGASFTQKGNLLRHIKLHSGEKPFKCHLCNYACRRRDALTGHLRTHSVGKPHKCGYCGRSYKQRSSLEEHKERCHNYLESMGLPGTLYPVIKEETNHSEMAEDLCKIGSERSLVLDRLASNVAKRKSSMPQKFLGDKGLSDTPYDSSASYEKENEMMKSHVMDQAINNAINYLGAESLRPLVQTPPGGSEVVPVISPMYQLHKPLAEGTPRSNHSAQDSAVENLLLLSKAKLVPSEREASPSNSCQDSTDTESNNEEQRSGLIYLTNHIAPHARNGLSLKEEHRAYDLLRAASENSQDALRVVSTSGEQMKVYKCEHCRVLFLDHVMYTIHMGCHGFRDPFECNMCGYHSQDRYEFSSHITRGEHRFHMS
T6 sequence (Q96SW2 whole entry): as the sequence (Q96SW2 whole entry) above
T6 sequence (Q16531 whole entry partner): as the sequence (Q16531 whole entry partner) above
Procedure, shortened: as §1

Structure (SMILES) | IKZF2 substrate protein remaining % [1] | IKZF3 substrate protein remaining % [2] | CK1α substrate protein remaining % [3] | WEE1 substrate protein remaining % [4] | GSPT1 substrate protein remaining % [5] | IKZF1 substrate protein remaining % [6]
CC(C)c1cc2c(N3CCN(Cc4ccc5c(c4)C(=O)N(N4CCC(=O)NC4=O)C5=O)CC3)ncnc2s1 [GT-08093, 2-(2,4-dioxotetrahydropyrimidin-1(2H)-yl)-5-((4-(6-isopropylthieno[2,3-d]pyrimidin-4-yl)piperazin-1-yl)methyl)isoindoline-1,3-dione] | B (80%< substrate protein remaining % ≤100%) | B (80%< substrate protein remaining % ≤100%) | A (0% ≤ substrate protein remaining % ≤80%) | A (0% ≤ substrate protein remaining % ≤80%) | A (0% ≤ substrate protein remaining % ≤80%) | B (80%< substrate protein remaining % ≤100%)
Cc1cc(N2CCN(Cc3ccc4c(c3)CN(N3CCC(=O)NC3=O)C4=O)CC2)cs1 [GT-05087, 1-(5-((4-(5-methylthiophen-3-yl)piperazin-1-yl)methyl)-1-oxoisoindolin-2-yl)dihydropyrimidine-2,4(1H,3H)-dione] | B (80%< substrate protein remaining % ≤100%) | B (80%< substrate protein remaining % ≤100%) | B (80%< substrate protein remaining % ≤100%) | B (80%< substrate protein remaining % ≤100%) | A (0% ≤ substrate protein remaining % ≤80%) | B (80%< substrate protein remaining % ≤100%)
O=C1CCN(N2Cc3cc(CN4CC=C(c5c[nH]c6cc(F)ccc56)CC4)ccc3C2=O)C(=O)N1 [GT-07574, 1-(5-((4-(6-fluoro-1H-indol-3-yl)-3,6-dihydropyridin-1(2H)-yl)methyl)-1-oxoisoindolin-2-yl)dihydropyrimidine-2,4(1H,3H)-dione] | A (0% ≤ substrate protein remaining % ≤80%) | B (80%< substrate protein remaining % ≤100%) | A (0% ≤ substrate protein remaining % ≤80%) | A (0% ≤ substrate protein remaining % ≤80%) | A (0% ≤ substrate protein remaining % ≤80%) | B (80%< substrate protein remaining % ≤100%)
Cc1cscc1C1CCN(Cc2ccc3c(c2)CN(N2CCC(=O)NC2=O)C3=O)CC1 [GT-07372, 1-(5-((4-(4-methylthiophen-3-yl)piperidin-1-yl)methyl)-1-oxoisoindolin-2-yl)dihydropyrimidine-2,4(1H,3H)-dione] | B (80%< substrate protein remaining % ≤100%) | A (0% ≤ substrate protein remaining % ≤80%) | B (80%< substrate protein remaining % ≤100%) | B (80%< substrate protein remaining % ≤100%) | A (0% ≤ substrate protein remaining % ≤80%) | B (80%< substrate protein remaining % ≤100%)
Cc1cccc(N2CCN(Cc3ccc4c(c3)C(=O)N(N3CCC(=O)NC3=O)C4=O)CC2)n1 [GT-05352, 2-(2,4-dioxotetrahydropyrimidin-1(2H)-yl)-5-((4-(6-methylpyridin-2-yl)piperazin-1-yl)methyl)isoindoline-1,3-dione] | A (0% ≤ substrate protein remaining % ≤80%) | B (80%< substrate protein remaining % ≤100%) | B (80%< substrate protein remaining % ≤100%) | B (80%< substrate protein remaining % ≤100%) | A (0% ≤ substrate protein remaining % ≤80%) | B (80%< substrate protein remaining % ≤100%)
O=C1CCN(N2C(=O)c3ccc(CN4CCC(c5cccc(C(F)(F)F)c5)CC4)cc3C2=O)C(=O)N1 [GT-06880, 2-(2,4-dioxotetrahydropyrimidin-1(2H)-yl)-5-((4-(3-(trifluoromethyl)phenyl)piperidin-1-yl)methyl)isoindoline-1,3-dione] | B (80%< substrate protein remaining % ≤100%) | B (80%< substrate protein remaining % ≤100%) | B (80%< substrate protein remaining % ≤100%) | A (0% ≤ substrate protein remaining % ≤80%) | B (80%< substrate protein remaining % ≤100%) | B (80%< substrate protein remaining % ≤100%)
O=C1CCN(N2Cc3cc(CN4CCC(c5ccnc6cc(F)ccc56)CC4)ccc3C2=O)C(=O)N1 [GT-07645, 1-(5-((4-(7-fluoroquinolin-4-yl)piperidin-1-yl)methyl)-1-oxoisoindolin-2-yl)dihydropyrimidine-2,4(1H,3H)-dione] | B (80%< substrate protein remaining % ≤100%) | B (80%< substrate protein remaining % ≤100%) | B (80%< substrate protein remaining % ≤100%) | B (80%< substrate protein remaining % ≤100%) | A (0% ≤ substrate protein remaining % ≤80%) | A (0% ≤ substrate protein remaining % ≤80%)
O=C1CCN(N2Cc3cc(CN4CCN(c5ccncc5)CC4)ccc3C2=O)C(=O)N1 [GT-05437, 1-(1-oxo-5-((4-(pyridin-4-yl)piperazin-1-yl)methyl)isoindolin-2-yl)dihydropyrimidine-2,4(1H,3H)-dione] | B (80%< substrate protein remaining % ≤100%) | B (80%< substrate protein remaining % ≤100%) | B (80%< substrate protein remaining % ≤100%) | B (80%< substrate protein remaining % ≤100%) | A (0% ≤ substrate protein remaining % ≤80%) | B (80%< substrate protein remaining % ≤100%)
O=C1CCN(N2Cc3cc(CN4CCN(c5n[nH]c6cc(F)ccc56)CC4)ccc3C2=O)C(=O)N1 [GT-07545, 1-(5-((4-(6-fluoro-1H-indazol-3-yl)piperazin-1-yl)methyl)-1-oxoisoindolin-2-yl)dihydropyrimidine-2,4(1H,3H)-dione] | B (80%< substrate protein remaining % ≤100%) | B (80%< substrate protein remaining % ≤100%) | A (0% ≤ substrate protein remaining % ≤80%) | A (0% ≤ substrate protein remaining % ≤80%) | A (0% ≤ substrate protein remaining % ≤80%) | A (0% ≤ substrate protein remaining % ≤80%)
O=C1CCN(N2Cc3cc(CN4CCN(c5ccncc5F)CC4)ccc3C2=O)C(=O)N1 [GT-05697, 1-(5-((4-(3-fluoropyridin-4-yl)piperazin-1-yl)methyl)-1-oxoisoindolin-2-yl)dihydropyrimidine-2,4(1H,3H)-dione] | B (80%< substrate protein remaining % ≤100%) | B (80%< substrate protein remaining % ≤100%) | B (80%< substrate protein remaining % ≤100%) | A (0% ≤ substrate protein remaining % ≤80%) | A (0% ≤ substrate protein remaining % ≤80%) | B (80%< substrate protein remaining % ≤100%)
O=C1CCN(N2Cc3cc(CN4CC=C(c5cncc(Cl)c5)CC4)ccc3C2=O)C(=O)N1 [GT-06394, 1-(5-((5-chloro-3′,6′-dihydro-[3,4′-bipyridin]-1′ (2′H)-yl)methyl)-1-oxoisoindolin-2-yl)dihydropyrimidine-2,4(1H,3H)-dione] | A (0% ≤ substrate protein remaining % ≤80%) | B (80%< substrate protein remaining % ≤100%) | A (0% ≤ substrate protein remaining % ≤80%) | B (80%< substrate protein remaining % ≤100%) | A (0% ≤ substrate protein remaining % ≤80%) | B (80%< substrate protein remaining % ≤100%)
Cc1ccc(Cl)cc1N1CCN(Cc2ccc3c(c2)CN(N2CCC(=O)NC2=O)C3=O)CC1 [GT-06883, 1-(5-((4-(5-chloro-2-methylphenyl)piperazin-1-yl)methyl)-1-oxoisoindolin-2-yl)dihydropyrimidine-2,4(1H,3H)-dione] | B (80%< substrate protein remaining % ≤100%) | B (80%< substrate protein remaining % ≤100%) | B (80%< substrate protein remaining % ≤100%) | A (0% ≤ substrate protein remaining % ≤80%) | A (0% ≤ substrate protein remaining % ≤80%) | A (0% ≤ substrate protein remaining % ≤80%)
O=C1CCN(N2C(=O)c3ccc(CN4CCC(c5ncnc6sc7c(c56)CCCC7)CC4)cc3C2=O)C(=O)N1 [GT-08424, 2-(2,4-dioxotetrahydropyrimidin-1(2H)-yl)-5-((4-(5,6,7,8-tetrahydrobenzo[4,5]thieno[2,3-d]pyrimidin-4-yl)piperidin-1-yl)methyl)isoindoline-1,3-dione] | B (80%< substrate protein remaining % ≤100%) | B (80%< substrate protein remaining % ≤100%) | A (0% ≤ substrate protein remaining % ≤80%) | B (80%< substrate protein remaining % ≤100%) | A (0% ≤ substrate protein remaining % ≤80%) | B (80%< substrate protein remaining % ≤100%)
